Results published in patent US7101878B1 (Agouron Pharmaceuticals, Inc., priority 1998, dated 2006).
pIC50: −log10 of the molar value. Where two headings read alike, the source gives them in different places.

Biological target: T1, human GnRH receptor (Homo sapiens, UniProt P30968)
T1 construct: expressed in transfected cells; host or cells: HEK 293 (hGnRH-R/293, from Dr. Stuart Sealfon)
T1 sequence (P30968 1-328): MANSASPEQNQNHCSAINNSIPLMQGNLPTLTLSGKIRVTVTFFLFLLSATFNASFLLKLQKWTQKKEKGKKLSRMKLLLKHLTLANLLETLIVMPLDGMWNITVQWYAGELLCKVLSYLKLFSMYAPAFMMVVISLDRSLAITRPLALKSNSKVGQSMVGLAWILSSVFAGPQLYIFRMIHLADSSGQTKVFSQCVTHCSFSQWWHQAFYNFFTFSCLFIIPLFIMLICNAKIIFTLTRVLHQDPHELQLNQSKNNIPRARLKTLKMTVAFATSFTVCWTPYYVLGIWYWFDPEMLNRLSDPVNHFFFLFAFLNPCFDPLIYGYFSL
Assay: Radioligand binding, 125I-GnRH-A displacement, membranes of HEK 293 cells with human GnRH receptor
Conditions: for pIC50: read-out: hGnRH IC50; for remaining activity at 1 µM: 1 uM compound, read-out: S%R 1 uM hGnRHR; for remaining activity at 10 µM: read-out: S%R 10 uM hGnRHR
Outline: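 After filtration and PBS washes, bound radioactivity was counted by scintillation and IC50 derived. Identical conditions applied for non-human receptors.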

[1] = 1 uM, read-out: % Inhib. @ 1 uM hGnRH
[2] = 1 h, repeat of % Inhib. at 1 uM, read-out: Repeats @ 1 uM hGnRH
[3] = 1 h, substrate remaining, closer to zero = closer to 100% inhibition
[4] = 1 h, substrate remaining, 10 uM compound, closer to zero = closer to 100% inhibition

Row | inhibition at 1 µM [1] [%] | inhibition at 1 µM [2] [%] | SMILES | also measured
1 | 57 | 64 | Cc1cc2c(cc1Cc1ccc(C(=O)NCCc3ccc(N)cc3)o1)C(C)(C)CCC2(C)C [drawing 1017] | 
2 | 44 | 48 | COc1cc(CCNC(=O)c2ccc(Cc3cc4c(cc3C)C(C)(C)CCC4(C)C)o2)cc(OC)c1 [drawing 1148] | 
3 |  |  | CCCOCCNC(=O)c1ccc(Cc2cc3c(cc2C)C(C)(C)CCC3(C)C)o1 [Compound 132] | pIC50: 6.19
4 | 78 | 81 | Cc1cc2c(cc1Cc1ccc(C(=O)NCCc3c[nH]c4ccccc34)o1)C(C)(C)CCC2(C)C [drawing 1012] | 
5 | -29 | -30 | Cc1cc2c(cc1Cc1ccc(C(=O)Nc3nccc(Nc4cc(C(F)(F)F)cc(C(F)(F)F)c4)n3)o1)C(C)(C)CCC2(C)C | 
6 | 71 | 76 | Cc1cc2c(cc1Cc1ccc(C(=O)NCc3ccc(S(N)(=O)=O)cc3)o1)C(C)(C)CCC2(C)C [drawing 1052] | 
7 |  |  | Cc1cc2c(cc1Cc1ccc(C(=O)NC(c3ccccc3)C(O)c3ccccc3)o1)C(C)(C)CCC2(C)C (stereo not shown) [drawing 1072] | % Inhib. @ 1 uM hGnRH (1 uM): 56%; Repeats @ 1 uM hGnRH (repeat of % Inhib. at 1 uM): 57
8 |  |  | COc1cccc(CCNC(=O)c2ccc(Cc3cc4c(cc3C)C(C)(C)CCC4(C)C)o2)c1OC [Compound 429] | remaining activity at 1 µM [3]: 40%
9 | -21 | -5 | Cc1cc2c(cc1Cc1ccc(C(=O)NC3CCCCC3Cc3nccc(NCC4CCCO4)n3)o1)C(C)(C)CCC2(C)C (stereo not shown) | 
10 |  |  | COc1ccc(CCNC(=O)c2ccc(Cc3cc4c(cc3C)C(C)(C)CCC4(C)C)o2)cc1 [Compound 433] | remaining activity at 1 µM [3]: 54%
11 | 94 | 96 | COc1ccc(CNC(=O)c2ccc(Cc3cc4c(cc3C)C(C)(C)CCC4(C)C)o2)c(OC)c1 [drawing 1224] | 
12 | 20 | 22 | Cc1cc2c(cc1Cc1ccc(C(=O)N(C)CC(O)c3ccccc3)o1)C(C)(C)CCC2(C)C (stereo not shown) | 
13 | 31 | 45 | Cc1cc2c(cc1Cc1ccc(C(=O)NCCc3c[nH]c4ccc(Cl)cc34)o1)C(C)(C)CCC2(C)C [drawing 1007] | 
14 |  |  | Cc1cc2c(cc1Cc1ccc(C(=O)NCc3cccc(CNc4ncnc5c(C)csc45)c3)o1)C(C)(C)CCC2(C)C [Compound 149] | pIC50: 6.44
15 |  |  | Cc1cc2c(cc1Cc1ccc(C(=O)NCc3ccc(Cl)cc3)o1)C(C)(C)CCC2(C)C [Compound 409] | remaining activity at 1 µM [3]: 32%
16 | -7 | 0 | Cc1cc2c(cc1Cc1ccc(C(=O)NCCN3CCCC3)o1)C(C)(C)CCC2(C)C [drawing 986] | 
17 |  |  | COc1cc(OC)c(NC(=O)c2ccc(Cc3cc4c(cc3C)C(C)(C)CCC4(C)C)n2Cc2ccccc2)c(OC)c1 [Compound 224] | pIC50: < 5.00
18 | 20 | 28 | Cc1cc2c(cc1Cc1ccc(C(=O)NC(C)c3ccc(Cl)cc3)o1)C(C)(C)CCC2(C)C (stereo not shown) | 
19 |  |  | Cc1cnc(CNC(=O)c2ccc(Cc3ccc4c(c3)C(C)(C)CCC4(C)C)o2)cn1 [Compound 60] | pIC50: 5.38
20 | 40 | 41 | Cc1cc2c(cc1Cc1ccc(C(=O)NCc3ccc(C(F)(F)F)cc3)o1)C(C)(C)CCC2(C)C | 

Row | inhibition at 1 µM [1] [%] | inhibition at 1 µM [2] [%] | SMILES | also measured
21 | 3 | 7 | Cc1cc2c(cc1Cc1ccc(C(=O)N3CCN(c4cnccn4)CC3)o1)C(C)(C)CCC2(C)C | 
22 |  |  | COc1ccc(NC(=O)c2ccc(Cc3cc4c(cc3C)C(C)(C)CCC4(C)C)o2)c(Oc2ccc(Cl)cc2)n1 [Compound 391] | remaining activity at 10 µM [4]: 48%
23 |  |  | Cc1cc2c(cc1Cc1ccc(C(=O)NCCc3ccccc3Cl)o1)C(C)(C)CCC2(C)C [Compound 418] | remaining activity at 1 µM [3]: 42%
24 |  |  | Cc1cc2c(cc1Cc1ccc(C(=O)Nc3cccc(CO)c3)o1)C(C)(C)CCC2(C)C [Compound 121] | pIC50: 5.96
25 |  |  | COc1cc(OC)c(CNC(=O)c2ccc(Cc3cc4c(cc3C)C(C)(C)CCC4(C)C)o2)c(OC)c1 [Compound 172] | pIC50: 5.49
26 | 17 | 23 | Cc1cc2c(cc1Cc1ccc(C(=O)NC(CCO)c3ccccc3)o1)C(C)(C)CCC2(C)C (stereo not shown) | 
27 |  |  | Cc1cc2c(cc1Cc1ccc(C(=O)Nc3cccc4c(=O)[nH][nH]c(=O)c34)o1)C(C)(C)CCC2(C)C [Compound 387] | remaining activity at 10 µM [4]: 52%
28 |  |  | Cc1ccc(CNC(=O)c2ccc(Cc3cc4c(cc3C)C(C)(C)CCC4(C)C)o2)cc1C [Compound 440] | remaining activity at 1 µM [3]: 22%
29 | 82 | 85 | Cc1cc2c(cc1Cc1ccc(C(=O)NCc3cccs3)o1)C(C)(C)CCC2(C)C [drawing 1099] | 
30 |  |  | CCOc1ccc(NC(=O)c2ccc(Cc3cc4c(cc3C)C(C)(C)CCC4(C)C)o2)cc1 [Compound 338] | remaining activity at 10 µM [4]: 26%
31 | 22 | 28 | Cc1cc2c(cc1Cc1ccc(C(=O)NCCc3c[nH]cn3)o1)C(C)(C)CCC2(C)C [drawing 1031] | 
32 | 55 | 63 | Cc1cc2c(cc1Cc1ccc(C(=O)NCCc3ccccc3Cl)o1)C(C)(C)CCC2(C)C [drawing 1104] | 
33 | 70 | 72 | Cc1cc2c(cc1Cc1ccc(C(=O)NCCNc3ccccc3)o1)C(C)(C)CCC2(C)C [drawing 1080] | 
34 | -20 | -26 | Cc1cc2c(cc1Cc1ccc(C(=O)NCCCNCCCCNCCCN)o1)C(C)(C)CCC2(C)C [drawing 1034] | 
35 |  |  | Cc1cc2c(cc1Cc1ccc(C(=O)NCCc3cccc(F)c3)o1)C(C)(C)CCC2(C)C [Compound 54] | pIC50: 6.17
36 | -23 | -8 | Cc1cc2c(cc1Cc1ccc(C(=O)NCCC(=O)NC(c3ccccc3)c3ccccc3)o1)C(C)(C)CCC2(C)C | 
37 | 44 | 49 | COc1cc(CCNC(=O)c2ccc(Cc3cc4c(cc3C)C(C)(C)CCC4(C)C)o2)cc(OC)c1O [drawing 1061] | 
38 |  |  | Cc1cc2c(cc1Cc1ccc(C(=O)Nc3ccc(O)cc3)o1)C(C)(C)CCC2(C)C [Compound 340] | remaining activity at 10 µM [4]: 28%
39 | -12 | -9 | Cc1cc2c(cc1Cc1ccc(C(=O)NCCCCCC(=O)O)o1)C(C)(C)CCC2(C)C | 
40 |  |  | Cc1cnc(CNC(=O)c2ccc(Cc3ccccc3)o2)cn1 [Compound 45] | pIC50: < 5.00

Row | inhibition at 1 µM [1] [%] | inhibition at 1 µM [2] [%] | SMILES | also measured
41 | 75 | 92 | Cc1cc2c(cc1Cc1ccc(C(=O)NCc3ccc4c(c3)OCO4)o1)C(C)(C)CCC2(C)C [drawing 992] | 
42 |  |  | Cc1cc(C)cc(NC(=O)c2ccc(Cc3cc4c(cc3C)C(C)(C)CCC4(C)C)o2)c1 [Compound 236] | pIC50: 6.04
43 | 26 | 26 | Cc1cc2c(cc1Cc1ccc(C(=O)NCCCN3CCN(C)CC3)o1)C(C)(C)CCC2(C)C [drawing 980] | 
44 | -6 | 0 | Cc1cc2c(cc1Cc1ccc(C(=O)NC3COC(C)(C)O[C@H]3c3ccccc3)o1)C(C)(C)CCC2(C)C (stereo partly shown) | 
45 | 16 | 23 | Cc1cc2c(cc1Cc1ccc(C(=O)NCCc3ccc(Cl)cc3Cl)o1)C(C)(C)CCC2(C)C [drawing 998] | 
46 |  |  | Cc1cc2c(cc1Cc1ccc(C(=O)Nc3c(C)cccc3O)o1)C(C)(C)CCC2(C)C [Compound 373] | remaining activity at 10 µM [4]: 19%
47 | -3 | 8 | Cc1cc2c(cc1Cc1ccc(C(=O)NCCCN3CCCCC3)o1)C(C)(C)CCC2(C)C [drawing 1050] | 
48 |  |  | Cc1cc2c(cc1Cc1ccc(C(=O)NCc3cccc(CNc4ncnc5scc(C)c45)c3)o1)C(C)(C)CCC2(C)C [Compound 142] | pIC50: 5.52
49 | -12 | 1 | Cc1cc2c(cc1Cc1ccc(C(=O)N3CCN(c4ccc(C(F)(F)F)cc4)CC3)o1)C(C)(C)CCC2(C)C | 
50 |  |  | Cc1ccc(CCNC(=O)c2ccc(Cc3cc4c(cc3C)C(C)(C)CCC4(C)C)o2)cc1 [Compound 442] | remaining activity at 1 µM [3]: 50%
51 |  |  | Cc1cc2c(cc1Cc1ccc(C(=O)Nc3ccccc3C)o1)C(C)(C)CCC2(C)C [Compound 362] | remaining activity at 10 µM [4]: 1%
52 |  |  | CSc1ccccc1NC(=O)c1ccc(Cc2cc3c(cc2C)C(C)(C)CCC3(C)C)o1 [Compound 161] | pIC50: 6.52
53 |  |  | Cc1ccc(-n2nc(C)cc2NC(=O)c2ccc(Cc3cc4c(cc3C)C(C)(C)CCC4(C)C)o2)cc1 [Compound 326] | remaining activity at 10 µM [4]: 51%
54 |  |  | Cc1cc2c(cc1Cc1ccc(C(=O)Nc3ccc4[nH]ccc4c3)o1)C(C)(C)CCC2(C)C [Compound 357] | S%R 10 uM hGnRHR (substrate remaining, 10 uM compound, closer to zero = closer to 100% inhibition): −2%
55 | 86 | 90 | Cc1cc2c(cc1Cc1ccc(C(=O)NCCCc3ccccc3)o1)C(C)(C)CCC2(C)C [drawing 990] | 
56 |  |  | Cc1cc(NC(=O)c2ccc(Cc3cc4c(cc3C)C(C)(C)CCC4(C)C)o2)n(-c2ccccc2)n1 [Compound 328] | remaining activity at 10 µM [4]: 33%
57 |  |  | Cc1cc2c(cc1Cc1ccc(C(=O)NCC(=O)O)o1)C(C)(C)CCC2(C)C [Compound 162] | pIC50: < 5.00
58 | -8 | 3 | Cc1cc2c(cc1Cc1ccc(C(=O)NC(c3ccccc3)c3ccc(Cl)cc3)o1)C(C)(C)CCC2(C)C (stereo not shown) | 
59 | 53 | 64 | Cc1cc2c(cc1Cc1ccc(C(=O)NCc3ccc(Cl)cc3Cl)o1)C(C)(C)CCC2(C)C [drawing 1133] | 
